Measured values as given in publication PMC3034978 (Biopharmaceutics & drug disposition, 2010).
Like-named read-outs stand apart in the source and are kept apart here. Marks after values point to notes of the source that are not given here. Values belong to the compound of their own block, whether it stands above or below them.

How the values were obtained:
BME-UV monolayer = experiment: Mannitol flux across BME-UV monolayer from Ap-to-BL side; format: in vitro ADME, bovine; details: for Effect on flux of mannitol across BME-UV monolayer (monolayer integrity): 200 ng/ml TNF-α
P-glycoprotein [1] = experiment: Western blot of P-glycoprotein immunoreactive bands in BME-UV cells; format: cell-based, bovine; details: TNF-α 200 ng/ml
[2] = test system: mammary epithelial monolayer (BME-UV); details: exposure to TNF-α for 8 hours; cited from earlier work
bABCB1 mRNA = bABCB1 mRNA expression by quantitative real-time RT-PCR in BME-UV cells; format: cell-based, bovine; details: 200 ng/ml TNF-α, 24 hours exposure, vs unexposed cells
P-glycoprotein [3] = target: P-glycoprotein (Bos taurus, UniProt A0A3Q1MB23); experiment: Ap-to-BL flux of digoxin; format: in vitro ADME, bovine; details: TNF-α 200 ng/ml, 24 hours exposure; 0.05 μM [3H]-digoxin
P-glycoprotein (Bos taurus, UniProt A0A3Q1MB23), sequence (A0A3Q1MB23 1-1267): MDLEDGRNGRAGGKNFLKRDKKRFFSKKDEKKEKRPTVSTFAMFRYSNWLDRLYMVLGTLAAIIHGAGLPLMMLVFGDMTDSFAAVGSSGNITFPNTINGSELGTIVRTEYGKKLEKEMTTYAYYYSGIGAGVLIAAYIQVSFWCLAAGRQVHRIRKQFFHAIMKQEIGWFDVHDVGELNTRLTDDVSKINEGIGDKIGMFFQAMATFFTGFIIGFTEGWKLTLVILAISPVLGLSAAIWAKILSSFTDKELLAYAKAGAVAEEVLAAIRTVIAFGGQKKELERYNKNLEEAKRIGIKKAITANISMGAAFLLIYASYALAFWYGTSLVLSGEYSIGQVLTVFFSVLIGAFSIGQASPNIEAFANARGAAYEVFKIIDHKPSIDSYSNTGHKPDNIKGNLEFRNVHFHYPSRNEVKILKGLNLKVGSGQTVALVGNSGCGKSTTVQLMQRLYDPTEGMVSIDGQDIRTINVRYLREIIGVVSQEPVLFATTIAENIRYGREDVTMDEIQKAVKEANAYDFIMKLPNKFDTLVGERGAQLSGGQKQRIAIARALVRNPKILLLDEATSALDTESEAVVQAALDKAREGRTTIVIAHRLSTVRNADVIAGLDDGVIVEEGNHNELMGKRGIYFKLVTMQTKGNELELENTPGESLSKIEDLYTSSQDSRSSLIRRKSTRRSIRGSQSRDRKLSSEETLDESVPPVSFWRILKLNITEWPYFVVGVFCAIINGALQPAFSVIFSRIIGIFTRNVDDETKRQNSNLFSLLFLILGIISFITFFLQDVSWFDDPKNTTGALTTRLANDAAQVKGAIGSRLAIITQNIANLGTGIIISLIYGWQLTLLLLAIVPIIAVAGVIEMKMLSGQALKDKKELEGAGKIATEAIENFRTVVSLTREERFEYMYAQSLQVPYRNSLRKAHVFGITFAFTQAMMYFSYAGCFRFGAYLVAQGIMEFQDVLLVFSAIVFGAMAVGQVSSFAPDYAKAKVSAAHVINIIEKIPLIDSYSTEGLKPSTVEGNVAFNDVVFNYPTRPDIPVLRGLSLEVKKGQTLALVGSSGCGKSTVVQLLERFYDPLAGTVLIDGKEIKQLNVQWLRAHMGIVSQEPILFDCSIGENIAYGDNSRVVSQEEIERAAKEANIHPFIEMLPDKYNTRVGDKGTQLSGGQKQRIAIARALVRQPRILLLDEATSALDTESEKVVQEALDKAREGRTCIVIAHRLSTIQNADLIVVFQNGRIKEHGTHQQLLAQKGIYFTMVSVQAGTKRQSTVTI

Intracellular content of digoxin (BME-UV cells; BME-UV cells exposed to TNF-α for 24 hours): 4.6 ± 1.1 × 10^−4 nmol
Intracellular content of digoxin (BME-UV cells; BME-UV cells exposed to TNF-α for 72 hrs): 3.0 ± 0.2 × 10^−4 nmol
Intracellular content of digoxin (BME-UV cells; unexposed BME-UV cells): 6.3 ± 2.6 × 10^−4 nmol
Compound: C[C@H]1O[C@@H](O[C@H]2[C@@H](O)C[C@H](O[C@H]3[C@@H](O)C[C@H](O[C@H]4CC[C@@]5(C)[C@H](CC[C@@H]6[C@@H]5C[C@@H](O)[C@]5(C)[C@@H](C7=CC(=O)OC7)CC[C@]65O)C4)O[C@@H]3C)O[C@@H]2C)C[C@H](O)[C@@H]1O [digoxin]

Mannitol flux, Ap-to-BL (BME-UV monolayer; BME-UV exposed to TNF-α 200 ng/ml for 24 hr (TNF-24H)): 15.5 × 10^−3 ^b nmol/cm^2/hr
Mannitol flux, Ap-to-BL (BME-UV monolayer; BME-UV exposed to TNF-α 200 ng/ml for 72 hr (TNF-72H)): 14.1 × 10^−3 ^b nmol/cm^2/hr
Mannitol flux, Ap-to-BL (BME-UV monolayer; BME-UV exposed to TNF-α 200 ng/ml for 120 hr (TNF-120H)): 9.6 × 10^−3 ^a nmol/cm^2/hr
Flux value of mannitol (BME-UV monolayer; TNF-α exposed monolayers for 24 hours): 15.5 ± 0.8 × 10^−6 μmol/cm^2 per hour
Mannitol flux, Ap-to-BL (BME-UV monolayer; Untreated BME-UV monolayer, 2 μM [14C]-mannitol): 6.5 × 10^−3 ^a nmol/cm^2/hr
Flux value of mannitol (BME-UV monolayer; unexposed monolayers): 6.5 ± 0.7 × 10^−6 μmol/cm^2 per hour
Compound: OC[C@@H](O)[C@@H](O)[C@H](O)[C@H](O)CO [mannitol]

Change in Ap-to-BL flux of digoxin (P-glycoprotein [3]): significantly decreased
Compound: TNF-α
Change in P-glycoprotein immunoreactive level (P-glycoprotein [1]; 24 hours exposure): significant increase
Change in P-glycoprotein immunoreactive level (P-glycoprotein [1]; 72 hours exposure): maximum observed effect
Change in P-glycoprotein immunoreactive level (P-glycoprotein [1]; 120 hours exposure, lower than at 72 hours): increased significantly
Decrease in Rte value [2]: 30%
Effect on flux of mannitol across BME-UV monolayer (monolayer integrity) (BME-UV monolayer; 24 and 72 hours exposure): increased significantly
Effect on flux of mannitol across BME-UV monolayer (monolayer integrity) (BME-UV monolayer; 120 hours exposure): indistinguishable from untreated
Change in bABCB1 mRNA expression (bABCB1 mRNA): significant increase
